In patent US6087376A (priority 1998, dated 2000):

Experiments:
[1] = tested on: rat striatal slices preloaded with [3H]DA; assay: Mecamylamine antagonism of lobeline-evoked [3H]overflow from rat striatal slices; type: cell-based; set-up: lobeline-evoked total [3H]overflow: unit not given here
[2] = cited from earlier work
[3] = tested on: mouse striatal synaptosomes; settings: cited from earlier work
[4] = tested on: rat striatal slices preloaded with [3H]DA; assay: [3H]DA release assay: drug-evoked [3H]overflow / fractional release from rat striatal slices preloaded with [3H]DA; type: cell-based
Description: Rat striata were rapidly dissected on ice and were sliced using a McIlwain tissue chopper. […] Slices were rinsed with 15 mL fresh buffer and then incubated in fresh buffer containing 0.1 μM [^3 H]DA (6-8 slices/3 mL) for an additional 30 min. Subsequently, slices were rinsed with 15 mL fresh buffer and transferred to a glass superfusion chamber. […] After 60 min of superfusion when basal outflow was stabilized, two 5-min samples (5 mL) were collected to determine basal [^3 H]outflow.
The concentration-response for each drug was determined using a repeated-measures design.
The pH and volume of the solubilized tissue samples were adjusted to those of the superfusate samples.
Fractional release for each superfusate sample was calculated by dividing the tritium collected in each sample by the total tritium present in the tissue at the time of sample collection. Fractional release was expressed as a percentage of total tritium in the tissue at the time of sample collection. Basal outflow was calculated from the average of the tritium collected in the two 5-min samples just before the addition of drug.
Inhibition of synaptosomal and vesicular [^3 H]DA uptake were analyzed by repeated-measures, one-way ANOVA, and by an iterative nonlinear least-squares curve-fitting program (GraphPAD-PRIZM; GraphPAD, San Diego, Calif.) to obtain IC50 values. Dunnett's post hoc test was used to compare treatment means to a single control mean. Also, Duncan's New Multiple Range Test or Fisher's LSD post hoc analysis were used to compare pairs of treatment means. Duncan's New Multiple Range Test was used when significant one-way ANOVA's were obtained or when significant main effects were obtained in the two-way ANOVA's. Fisher's LSD post hoc analysis is a more conservative test, which takes into account error which cumulates during multiple comparisons of pairs of means. Fisher's LSD analysis was used when the interaction term was significant in the two-way ANOVAs, specifically in the post hoc analysis of drug×time interactions. Statistical significance was reached when P<0.05 (two-tailed, unless otherwise indicated).

rat striatum = assay: Striatal DA and DOPAC content after in vivo administration of lobeline
Source text: Male Sprague-Dawley rats (200-250 g) were obtained from Harlan Laboratories (Indianapolis, Ind.) and were housed two per cage with free access to food and water in the Division of Lab Animal Resources at the College of Pharmacy at the University of Kentucky. Experimental protocols involving the animals were in strict accordance with the NIH Guide for the Care and Use of Laboratory Animals and were approved by the Institutional Animal Care and Use Committee at the University of Kentucky.
Rats were killed 24 hrs after the last injection and striata were obtained immediately for determination of endogenous DA and DOPAC content. […] Striata were obtained for endogenous DA and DOPAC content determination 21 days after osmotic minipump implantation. Lobeline dose was expressed in terms of mg of lobeline hemisulfate salt per kg body weight.
An aliquot (500 μL) of 0.1 M perchloric acid (pH 1.0) containing 0.14-0.29 μM 3,4-dihydroxybenzylamine hydrobromide (DHBA, internal standard) was added to 100 mg of striatum and the mixture was sonicated with an Ultrasonic Processor (40-Watt Model, Sonics & Materials, Danbury, Conn.). The homogenate was centrifuged at 30,000×g for 10 min at 4° C., and the supernatant was filtered (0.2 μm nylon membrane). An aliquot (50 μL) of the filtrate (1:1, 1:50, 1:100, 1:200 or 1:500 dilution with 0.1 M perchloric acid) was injected onto the high pressure liquid chromatograph with electrochemical detection (HPLC-EC) system. The HPLC-EC system consisted of syringe loading injector (Model 7725, Rheodyne L. P., Cotati, Calif.), Beckman Model 116 HPLC pump (Beckman, Fullerton, Calif.), ESA ODS ultrasphere C18 reverse-phase column ([…]×75 mm, 3 micron particle size, ESA, Bedford, Mass.), and an ESA 5100A coulometric electrochemical detector with a model 5011 detector cell (E1=+0.05 V, E2=+0.32 V). The eluent was 6% acetonitrile, 10 μM EDTA, 1.4 mM 1-octane-sulfonic acid and 76 mM sodium phosphate monobasic (pH 3.1). All separations were performed at room temperature at a flow rate of 1 ml/min. Complete separation of DA and DOPAC and reequilibration of the system required 9 min. The retention time of DA, DOPAC and DHBA standards was used to identify the relevant peak. Peak heights were used to calculate the detected amount of compound based on standard curves. The detection limit of DA and DOPAC was 0.2 and 0.05 pg/50 μL injected, respectively. Recovery of internal standard was routinely 75%.

[5] = chronic, 30 mg/kg/day s.c. osmotic minipump, 21 days
[6] = intermittent, 3 mg/kg s.c. once daily for 10 days
[7] = intermittent, 10 mg/kg s.c. once daily for 10 days

In the case of `CN1[C@@H](CC(=O)c2ccccc2)CCC[C@H]1C[C@H](O)c1ccccc1` [Lobeline, 2-[G-(β-hydroxyphenethyl)-1-methyl-2-piperidyl]-acetophenone], the “lobeline-evoked total [3H]overflow” value ([1]; lobeline 0.1 μM, mecamylamine 0 μM) is reported as 0.6 ± 0.4, the “lobeline-evoked total [3H]overflow” value ([1]; lobeline 0.1 μM, mecamylamine 1 μM) is reported as 0.9 ± 0.5 and the “lobeline-evoked total [3H]overflow” value ([1]; lobeline 0.1 μM, mecamylamine 10 μM) is reported as 0.8 ± 0.3. For the same compound, the “lobeline-evoked total [3H]overflow” value ([1]; lobeline 0.1 μM, mecamylamine 100 μM) was 0.5 ± 0.4, the “lobeline-evoked total [3H]overflow” value ([1]; lobeline 1 μM, mecamylamine 0 μM) was 2.0 ± 0.6 and the “lobeline-evoked total [3H]overflow” value ([1]; lobeline 1 μM, mecamylamine 1 μM) was 4.9 ± 1.8. For the same compound, the “lobeline-evoked total [3H]overflow” value ([1]; lobeline 1 μM, mecamylamine 10 μM) was 2.4 ± 0.5, the “lobeline-evoked total [3H]overflow” value ([1]; lobeline 1 μM, mecamylamine 100 μM) was 0.7 ± 0.1 and the “lobeline-evoked total [3H]overflow” value ([1]; lobeline 3 μM, mecamylamine 0 μM) was 10.3 ± 0.8. For the same compound, the “lobeline-evoked total [3H]overflow” value ([1]; lobeline 3 μM, mecamylamine 1 μM) was 10.8 ± 1.4, the “lobeline-evoked total [3H]overflow” value ([1]; lobeline 3 μM, mecamylamine 10 μM) was 8.2 ± 1.5 and the “lobeline-evoked total [3H]overflow” value ([1]; lobeline 3 μM, mecamylamine 100 μM) was 6.5 ± 0.9. For the same compound, the “lobeline-evoked total [3H]overflow” value ([1]; lobeline 10 μM, mecamylamine 0 μM) was 31.9 ± 2.2, the “lobeline-evoked total [3H]overflow” value ([1]; lobeline 10 μM, mecamylamine 1 μM) was 32.5 ± 1.0 and the “lobeline-evoked total [3H]overflow” value ([1]; lobeline 10 μM, mecamylamine 10 μM) was 41.0 ± 6.2. For the same compound, the “lobeline-evoked total [3H]overflow” value ([1]; lobeline 10 μM, mecamylamine 100 μM) was 20.0 ± 2.0, the “lobeline-evoked total [3H]overflow” value ([1]; lobeline 100 μM, mecamylamine 0 μM) was 185.0 ± 12 and the “lobeline-evoked total [3H]overflow” value ([1]; lobeline 100 μM, mecamylamine 1 μM) was 180.0 ± 47.6. The “lobeline-evoked total [3H]overflow” value ([1]; lobeline 100 μM, mecamylamine 10 μM) was 179.5 ± 12.2, the “lobeline-evoked total [3H]overflow” value ([1]; lobeline 100 μM, mecamylamine 100 μM) was 160.4 ± 30.2 and the “inhibition of lobeline-evoked [3H]overflow by mecamylamine” value ([1]; mecamylamine 1-100 μM, lobeline 0.1-100 μM) was “not inhibited by mecamylamine”. The pKa [2] was 8.3, the “DA release from superfused striatal synaptosomes” value [3] was “increase DA release” and the “effect on fractional release” value ([4]; 3 μM, 15 and 20 min after addition) was “significant increase in fractional release”. The “effect on fractional release (low concentrations)” value ([4]; 0.01-1 μM, entire superfusion period) was “did not significantly increase fractional release”, the “effect on fractional release (high concentrations)” value ([4]; 10-100 μM, from 10 min after addition to end) was “significantly increased” and the “calcium-dependency of [3H]overflow” value ([4]; calcium-free buffer vs control) was “not altered”. The “effect on [3H]overflow compared to nicotine” value ([4]; higher concentrations (10-100 μM)) was 8-34 fold, the “time of peak effect after start of exposure” value ([4]; lobeline) was 10 to 20 min and the “total [3H]overflow” value ([4]; lobeline 0.1 μM, calcium-free buffer with 0.5 mM EGTA) was 0 ± 0. For the same compound, the “total [3H]overflow” value ([4]; lobeline 0.1 μM, control buffer) was 0.6 ± 0.4, the “total [3H]overflow” value ([4]; lobeline 1 μM, calcium-free buffer with 0.5 mM EGTA) was 2.9 ± 0.2 and the “total [3H]overflow” value ([4]; lobeline 1 μM, control buffer) was 2.0 ± 0.6. The “total [3H]overflow” value ([4]; lobeline 10 μM, calcium-free buffer with 0.5 mM EGTA) was 45.0 ± 4.2, the “total [3H]overflow” value ([4]; lobeline 10 μM, control buffer) was 31.9 ± 2.2 and the peak fractional release ([4]; lobeline 30 μM) was “approximately 15 % of total tritium in the slice”. For the same compound, the peak fractional release ([4]; lobeline 100 μM) was ~30 % of total tritium in the slice, the “total [3H]overflow” value ([4]; lobeline 100 μM, calcium-free buffer with 0.5 mM EGTA) was 185.0 ± 12.0 and the “total [3H]overflow” value ([4]; lobeline 100 μM, control buffer) was 198.0 ± 20. The “fractional release over the remainder of the superfusion period” value ([4]; lobeline 30 and 100 μM) was 10-20 % of total tritium in the slice, the minimal effective concentration ([4]; read-out: lowest concentration which evoked a significant increase in [3H]overflow) was 1 µM and the “striatal DA content” value (rat striatum; acute, 1 mg/kg s.c., 1 hr) was 756 ± 111 ng/mg protein. For the same compound, the “striatal DOPAC content” value (rat striatum; acute, 1 mg/kg s.c., 1 hr) was 81 ± 12 ng/mg protein, the “striatal DA content” value (rat striatum; acute, 3 mg/kg s.c., 1 hr) was 761 ± 103 ng/mg protein and the “striatal DOPAC content” value (rat striatum; acute, 3 mg/kg s.c., 1 hr) was 89 ± 15 ng/mg protein. The “striatal DA content” value (rat striatum; acute, 10 mg/kg s.c., 1 hr) was 841 ± 76 ng/mg protein, the “striatal DOPAC content” value (rat striatum; acute, 10 mg/kg s.c., 1 hr) was 82 ± 8 ng/mg protein and the “striatal DA content” value (rat striatum; acute, 30 mg/kg s.c., 1 hr) was 665 ± 126 ng/mg protein. The “striatal DOPAC content” value (rat striatum; acute, 30 mg/kg s.c., 1 hr) was 72 ± 10 ng/mg protein, the “effect on striatal DA or DOPAC content in vivo” value (rat striatum; any dose or treatment regimen) was “did not significantly alter” and the “striatal DA content” value (rat striatum; [5]) was 856 ± 144 ng/mg protein. For the same compound, the “striatal DOPAC content” value (rat striatum; [5]) was 62 ± 10 ng/mg protein, the “striatal DA content” value (rat striatum; [6]) was 778 ± 27 ng/mg protein and the “striatal DOPAC content” value (rat striatum; [6]) was 57 ± 12 ng/mg protein. The “striatal DA content” value (rat striatum; [7]) was 800 ± 41 ng/mg protein and the “striatal DOPAC content” value (rat striatum; [7]) was 57 ± 3 ng/mg protein.
